This is an account of results in patent publication US7220743B2, “Heterocyclic CB1 receptor antagonists” (Hoffmann-La Roche Inc., priority 2005, dated 2007).

As a reminder, the IC50 is the point on the concentration scale where inhibition reaches its midpoint. Lower therefore signals greater potency.

The target in this assay is T1, cannabinoid CB1 receptors (Homo sapiens, UniProt P21554).
T1 construct: expressed in transfected cells; host or cells: HEK cells, transient, Semliki Forest Virus system; membrane preparation
As to the kind of experiment: Affinity for cannabinoid CB1 receptors, [3H]-CP-55,940 radioligand binding on HEK cell membranes. The note with it: CB1 receptor affinity, [3H]-CP-55,940, HEK membranes. Here is the method: The affinity of the compounds of the invention for cannabinoid CB1 receptors was determined using membrane preparations of human embryonic kidney (HEK) cells in which the human cannabis […] receptor is transiently transfected using the Semliki Forest Virus system in conjunction with [3H]-CP-55,940 as radioligand. After incubation of a freshly prepared cell membrane preparation with the [3H]-ligand, with or without addition of compounds of the invention, separation of bound and free ligand was performed by filtration over glassfiber filters. Radioactivity on the filter was measured by liquid scintillation counting.

T1 sequence (P21554 whole entry): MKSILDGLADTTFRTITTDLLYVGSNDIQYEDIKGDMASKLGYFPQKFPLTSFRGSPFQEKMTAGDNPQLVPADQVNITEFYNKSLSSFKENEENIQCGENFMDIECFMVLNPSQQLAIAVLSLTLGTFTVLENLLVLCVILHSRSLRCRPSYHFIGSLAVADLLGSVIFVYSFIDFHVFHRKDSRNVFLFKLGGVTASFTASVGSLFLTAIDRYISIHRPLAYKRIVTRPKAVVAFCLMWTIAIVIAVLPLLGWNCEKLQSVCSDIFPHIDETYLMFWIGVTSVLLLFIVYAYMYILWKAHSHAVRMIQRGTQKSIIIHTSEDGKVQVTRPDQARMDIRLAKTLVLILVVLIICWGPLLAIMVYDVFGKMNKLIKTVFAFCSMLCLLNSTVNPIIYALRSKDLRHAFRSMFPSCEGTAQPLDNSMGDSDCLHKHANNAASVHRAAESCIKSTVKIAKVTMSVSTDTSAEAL

On to `O=C(c1cc2c(cc1F)OC1(O2)c2ccccc2C=Cc2ccccc21)N1CCOCC1` [Example 3, 4-[(6-fluoro-spiro[1,3-benzodioxole-2,5′-[5H]dibenzo[a,d]cyclohepten]-5-yl)carbonyl]-morpholine], for which the IC50 is 6 nM.
